Assay results: ChEMBL document CHEMBL1201862, “PubChem BioAssay data set” (2004)
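How tested: cells in 96-well plates exposed to compound for 48 hours at five concentrations. At the GI50, growth is halved.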 Active and inactive are the calls of the source. Rule as the data show it: active = GI50 up to about 1.1 µM and inactive = higher.

Columns and labels:
Assay in all cases: NCI-60 cell line screen, 48 h
A549 = system: A549
ACHN = system: ACHN
BT-549 = system: BT-549
CAKI-1 = system: CAKI-1
CCRF-CEM = system: CCRF-CEM
COLO 205 = system: COLO 205
DU-145 = system: DU-145
EKVX = system: EKVX
HCT-116 = system: HCT-116
HCT-15 = system: HCT-15
HL-60 = system: HL-60
HOP-62 = system: HOP-62
HOP-92 = system: HOP-92
HT-29 = system: HT-29
Hs-578T = system: Hs-578T
IGROV-1 = system: IGROV-1
K562 = system: K562
KM12 = system: KM12
LOX IMVI = system: LOX IMVI
M14 = system: M14
MCF7 = system: MCF7
MDA-MB-231 = system: MDA-MB-231
MDA-MB-435 = system: MDA-MB-435
MDA-N = system: MDA-N
MOLT-4 = system: MOLT-4
Malme-3M = system: Malme-3M
NCI-H226 = system: NCI-H226
NCI-H23 = system: NCI-H23
NCI-H460 = system: NCI-H460
NCI-H522 = system: NCI-H522
NCI/ADR-RES = system: NCI/ADR-RES
OVCAR-3 = system: OVCAR-3
OVCAR-4 = system: OVCAR-4
OVCAR-5 = system: OVCAR-5
OVCAR-8 = system: OVCAR-8
PC-3 = system: PC-3
RPMI-8226 = system: RPMI-8226
RXF 393 = system: RXF 393
SF-268 = system: SF-268
SF-295 = system: SF-295
SF-539 = system: SF-539
SK-MEL-28 = system: SK-MEL-28
SK-MEL-2 = system: SK-MEL-2
SK-MEL-5 = system: SK-MEL-5
SK-OV-3 = system: SK-OV-3
SN12C = system: SN12C
SNB-19 = system: SNB-19
SNB-75 = system: SNB-75
SW-620 = system: SW-620
T47D = system: T47D
TK-10 = system: TK-10
U-251 = system: U-251
UACC-257 = system: UACC-257
UACC-62 = system: UACC-62
UO-31 = system: UO-31
786-0 = system: 786-0
A498 = system: A498
SR = system: SR
HCC 2998 = system: HCC 2998

CCOC(=O)c1c(-c2cccc(Cl)c2)c(C(=O)OC)c(C)c2sc(C=O)nc12
GI50 (A549): 49.9 µM (inactive)
GI50 (ACHN): 16.8 µM (inactive)
GI50 (BT-549): 17.3 µM (inactive)
GI50 (CAKI-1): 17.5 µM (inactive)
GI50 (CCRF-CEM): 12.8 µM (inactive)
GI50 (COLO 205): 17.5 µM (inactive)
GI50 (DU-145): 17.7 µM (inactive)
GI50 (EKVX): 16.6 µM (inactive)
GI50 (HCT-116): 7.14 µM (inactive)
GI50 (HCT-15): 19.8 µM
GI50 (HL-60): 17.7 µM (inactive)
GI50 (HOP-62): 13.6 µM (inactive)
GI50 (HOP-92): 15.7 µM (inactive)
GI50 (HT-29): 21 µM (inactive)
GI50 (Hs-578T): 21 µM (inactive)
GI50 (IGROV-1): 17.5 µM (inactive)
GI50 (K562): 27.5 µM (inactive)
GI50 (KM12): 16.7 µM (inactive)
GI50 (LOX IMVI): 14.3 µM (inactive)
GI50 (M14): 17 µM (inactive)
GI50 (MCF7): 17.8 µM (inactive)
GI50 (MDA-MB-231): 15.6 µM (inactive)
GI50 (MDA-MB-435): 19.6 µM (inactive)
GI50 (MDA-N): 19.9 µM (inactive)
GI50 (MOLT-4): 12.8 µM (inactive)
GI50 (Malme-3M): 19.3 µM (inactive)
GI50 (NCI-H226): 21.8 µM (inactive)
GI50 (NCI-H23): 51.9 µM (inactive)
GI50 (NCI-H460): 19.5 µM (inactive)
GI50 (NCI-H522): 16 µM (inactive)
GI50 (NCI/ADR-RES): 25.8 µM (inactive)
GI50 (OVCAR-3): 15.2 µM (inactive)
GI50 (OVCAR-4): 20 µM (inactive)
GI50 (OVCAR-5): 17.5 µM (inactive)
GI50 (OVCAR-8): 19.8 µM (inactive)
GI50 (PC-3): 16.4 µM (inactive)
GI50 (RPMI-8226): 14.1 µM (inactive)
GI50 (RXF 393): 23.8 µM (inactive)
GI50 (SF-268): 19 µM (inactive)
GI50 (SF-295): 15.8 µM (inactive)
GI50 (SF-539): 18.1 µM (inactive)
GI50 (SK-MEL-28): 18 µM (inactive)
GI50 (SK-MEL-2): 16.8 µM (inactive)
GI50 (SK-MEL-5): 14.3 µM (inactive)
GI50 (SK-OV-3): 26.7 µM (inactive)
GI50 (SN12C): 16.6 µM (inactive)
GI50 (SNB-19): 98.9 µM (inactive)
GI50 (SNB-75): 21.6 µM (inactive)
GI50 (SW-620): 48.4 µM (inactive)
GI50 (T47D): 14.8 µM (inactive)
GI50 (TK-10): 29.3 µM (inactive)
GI50 (U-251): 17.7 µM (inactive)
GI50 (UACC-257): 31.8 µM (inactive)
GI50 (UACC-62): 15.8 µM (inactive)
GI50 (UO-31): 17.8 µM (inactive)

Cc1ccc(C(=O)C2C=C(c3ccc(C)cc3)SC3C=CCC32)cc1 (centres undefined)
GI50 (786-0): 19.5 µM (inactive)
GI50 (A498): 24.7 µM (inactive)
GI50 (A549): 22.9 µM (inactive)
GI50 (ACHN): 20.5 µM (inactive)
GI50 (BT-549): 18.3 µM (inactive)
GI50 (CAKI-1): 18.9 µM (inactive)
GI50 (CCRF-CEM): 13.6 µM (inactive)
GI50 (COLO 205): 22.1 µM (inactive)
GI50 (DU-145): 32.3 µM (inactive)
GI50 (EKVX): 34.8 µM (inactive)
GI50 (HCT-116): 13.5 µM (inactive)
GI50 (HCT-15): 21.6 µM
GI50 (HL-60): 8.95 µM (inactive)
GI50 (HOP-62): 20.3 µM (inactive)
GI50 (HOP-92): 17.8 µM (inactive)
GI50 (HT-29): 21.4 µM (inactive)
GI50 (Hs-578T): 26.1 µM (inactive)
GI50 (IGROV-1): 19.6 µM (inactive)
GI50 (K562): 27.7 µM (inactive)
GI50 (KM12): 15 µM (inactive)
GI50 (LOX IMVI): 18.4 µM (inactive)
GI50 (M14): 19.6 µM (inactive)
GI50 (MDA-MB-231): 25.1 µM (inactive)
GI50 (MDA-MB-435): 14.4 µM (inactive)
GI50 (MDA-N): 14.8 µM (inactive)
GI50 (MOLT-4): 12.1 µM (inactive)
GI50 (Malme-3M): 16.3 µM (inactive)
GI50 (NCI-H226): 27.2 µM (inactive)
GI50 (NCI-H23): 24.2 µM (inactive)
GI50 (NCI-H460): 16.9 µM (inactive)
GI50 (NCI-H522): 15.3 µM (inactive)
GI50 (NCI/ADR-RES): 18.5 µM (inactive)
GI50 (OVCAR-3): 17 µM (inactive)
GI50 (OVCAR-4): 30.5 µM (inactive)
GI50 (OVCAR-5): 18.4 µM (inactive)
GI50 (OVCAR-8): 17 µM (inactive)
GI50 (PC-3): 18.1 µM (inactive)
GI50 (RPMI-8226): 16.3 µM (inactive)
GI50 (RXF 393): 21 µM (inactive)
GI50 (SF-295): 19.1 µM (inactive)
GI50 (SF-539): 17.9 µM (inactive)
GI50 (SK-MEL-28): 17.4 µM (inactive)
GI50 (SK-MEL-2): 16.1 µM (inactive)
GI50 (SK-MEL-5): 15.5 µM (inactive)
GI50 (SK-OV-3): 25.2 µM (inactive)
GI50 (SN12C): 17.2 µM (inactive)
GI50 (SNB-19): 30 µM (inactive)
GI50 (SR): 12.6 µM (inactive)
GI50 (SW-620): 15.8 µM (inactive)
GI50 (T47D): 20.5 µM (inactive)
GI50 (TK-10): 25.3 µM (inactive)
GI50 (U-251): 17.9 µM (inactive)
GI50 (UACC-257): 21.7 µM (inactive)
GI50 (UACC-62): 17.9 µM (inactive)
GI50 (UO-31): 16.1 µM (inactive)

CN(c1ccc(Cl)cc1)S(=O)(=O)c1ccc([N+](=O)[O-])cc1
GI50 (786-0): > 100 µM (inactive)
GI50 (A549): > 100 µM (inactive)
GI50 (ACHN): > 100 µM (inactive)
GI50 (BT-549): > 100 µM (inactive)
GI50 (CAKI-1): > 100 µM (inactive)
GI50 (CCRF-CEM): > 100 µM (inactive)
GI50 (COLO 205): > 100 µM (inactive)
GI50 (DU-145): > 100 µM (inactive)
GI50 (EKVX): > 100 µM (inactive)
GI50 (HCC 2998): > 100 µM (inactive)
GI50 (HCT-116): > 100 µM (inactive)
GI50 (HCT-15): > 100 µM
GI50 (HL-60): 59.4 µM (inactive)
GI50 (HOP-62): > 100 µM (inactive)
GI50 (HT-29): > 100 µM (inactive)
GI50 (Hs-578T): > 100 µM (inactive)
GI50 (IGROV-1): > 100 µM (inactive)
GI50 (K562): > 100 µM (inactive)
GI50 (KM12): > 100 µM (inactive)
GI50 (LOX IMVI): > 100 µM (inactive)
GI50 (M14): > 100 µM (inactive)
GI50 (MCF7): > 100 µM (inactive)
GI50 (MDA-MB-231): > 100 µM (inactive)
GI50 (MDA-MB-435): > 100 µM (inactive)
GI50 (MDA-N): > 100 µM (inactive)
GI50 (MOLT-4): > 100 µM (inactive)
GI50 (Malme-3M): 84.7 µM (inactive)
GI50 (NCI-H226): > 100 µM (inactive)
GI50 (NCI-H23): > 100 µM (inactive)
GI50 (NCI-H460): > 100 µM (inactive)
GI50 (NCI-H522): > 100 µM (inactive)
GI50 (NCI/ADR-RES): > 100 µM (inactive)
GI50 (OVCAR-3): > 100 µM (inactive)
GI50 (OVCAR-4): > 100 µM (inactive)
GI50 (OVCAR-5): > 100 µM (inactive)
GI50 (OVCAR-8): > 100 µM (inactive)
GI50 (PC-3): > 100 µM (inactive)
GI50 (RPMI-8226): > 100 µM (inactive)
GI50 (RXF 393): > 100 µM (inactive)
GI50 (SF-268): > 100 µM (inactive)
GI50 (SF-295): > 100 µM (inactive)
GI50 (SF-539): > 100 µM (inactive)
GI50 (SK-MEL-28): > 100 µM (inactive)
GI50 (SK-MEL-2): > 100 µM (inactive)
GI50 (SK-MEL-5): 26 µM (inactive)
GI50 (SK-OV-3): > 100 µM (inactive)
GI50 (SN12C): > 100 µM (inactive)
GI50 (SNB-19): > 100 µM (inactive)
GI50 (SNB-75): > 100 µM (inactive)
GI50 (SW-620): > 100 µM (inactive)
GI50 (T47D): > 100 µM (inactive)
GI50 (TK-10): > 100 µM (inactive)
GI50 (U-251): > 100 µM (inactive)
GI50 (UACC-257): > 100 µM (inactive)
GI50 (UACC-62): > 100 µM (inactive)
GI50 (UO-31): > 100 µM (inactive)

COc1ccc2c(=O)oc3c(OC)cc(CCN(C)C)c4c(=O)oc1c2c34 [TASPINE]
GI50 (A498): 10.3 µM (inactive)
GI50 (BT-549): 7.74 µM (inactive)
GI50 (CCRF-CEM): 0.948 µM (active)
GI50 (COLO 205): 9.16 µM (inactive)
GI50 (DU-145): 8.51 µM (inactive)
GI50 (Hs-578T): 10.3 µM (inactive)
GI50 (M14): 9.31 µM (inactive)
GI50 (MCF7): 5.86 µM (inactive)
GI50 (MDA-MB-231): 8.55 µM (inactive)
GI50 (MDA-MB-435): 8.32 µM (inactive)
GI50 (MDA-N): 7.82 µM (inactive)
GI50 (MOLT-4): 6.79 µM (inactive)
GI50 (NCI-H226): 24.2 µM (inactive)
GI50 (NCI-H23): 9.27 µM (inactive)
GI50 (NCI-H522): 6.76 µM (inactive)
GI50 (NCI/ADR-RES): 7.46 µM (inactive)
GI50 (OVCAR-3): 9.86 µM (inactive)
GI50 (OVCAR-5): 11.7 µM (inactive)
GI50 (OVCAR-8): 6.93 µM (inactive)
GI50 (PC-3): 10.5 µM (inactive)
GI50 (SF-268): 7.33 µM (inactive)
GI50 (SK-MEL-2): 12.1 µM (inactive)
GI50 (SK-MEL-5): 7.29 µM (inactive)
GI50 (SN12C): 7.78 µM (inactive)
GI50 (SNB-19): 8.93 µM (inactive)
GI50 (T47D): 9.35 µM (inactive)
GI50 (U-251): 9.68 µM (inactive)
GI50 (UACC-62): 8.97 µM (inactive)
